Measurements taken from US20050250677A1, “Glycopeptide antibiotic derivatives” (priority 2002, published 2005).
Where two headings read alike, the source gives them in different places.

How the values were obtained:
HEL cells [1] = conditions: read-out: CC50 (HEL)
HSV-1 (KOS) = test: Anti-HSV-1 assay: virus-induced cytopathicity in HEL cell cultures
HSV-2 (G) = test: Anti-HSV-2 assay: virus-induced cytopathicity in HEL cell cultures
HEL cells [2] = test system: HEL cells
CMV = test: Anti-CMV assay: virus-induced cytopathicity in HEL cell cultures; conditions: read-out: EC50 CMV AD-169; CMV strain AD-169, HEL cell cultures
VZV (wild-type strains) = test: Anti-VZV assay (wild-type strains): virus-induced cytopathicity in HEL cell cultures; assay type: cell-based, varicella-zoster virus; conditions: for EC50: HEL cell cultures
HIV-1 (HE) = test: Inhibition of HIV-1 (HE)-induced cytopathicity in CEM/0 cells; assay type: cell-based
HIV-2(ROD) = test: Inhibition of HIV-2 (ROD)-induced cytopathicity (giant cell formation) in CEM cells; assay type: cell-based; conditions: read-out: EC50 HIV-2 (concentration required to inhibit HIV-induced giant cell formation by 50%); HIV-2, CEM cell cultures
Description: (§1) A variety of glycopeptide antibiotic derivatives of vancomycin, eremomycin and teicoplanin including their aglycon derivatives were evaluated for their inhibitory activity against HIV-1 (IIIB) and HIV-2(ROD) in CEM cell cultures.

[3] = test system: human lymphocyte Molt4/clone 8; test: Cytostatic activity assay, Molt4/clone 8 cells; assay type: cell-based; conditions: read-out: IC50 Molt4/C8 (compound concentration required to inhibit tumor cell proliferation by 50%)
HIV-1(HE) = test: Inhibition of HIV-1 (HE)-induced cytopathicity in MOLT4/C8 cells; assay type: cell-based
HIV-1 (MN) = test: Inhibition of HIV-1 (MN)-induced cytopathicity in CEM/0 cells; assay type: cell-based
[4] = test system: mutant HIV-1 strain Lys-103-Asn; test: Anti-HIV-1 activity against mutant HIV-1 strain Lys-103-Asn in CEM cultures; assay type: cell-based
human lymphocyte CEM = test: Cytostatic activity assay, CEM cells; assay type: cell-based; conditions: read-out: IC50 CEM (compound concentration required to inhibit tumor cell proliferation by 50%)
murine leukemia L1210 = test: Cytostatic activity assay, L1210 cells; assay type: cell-based; conditions: read-out: IC50 L1210 (compound concentration required to inhibit tumor cell proliferation by 50%)
HIV-1 (IIIB) = test: Inhibition of HIV-1 (IIIB)-induced cytopathicity (giant cell formation) in CEM cells; assay type: cell-based
Description: as §1

HIV-2 (RF) = conditions: read-out: EC50 CEM/0 HIV-2 (RF); CEM/0 cells
Description: (§2) Inhibition of HIV-1 (IIIB, HE, HN) and HIV-2(ROD, EHO, RF)-induced cytopathicity in CEM or C8166 or Molt4/C8 cells was measured in microtiter 96-well plates containing ˜3×10^5 CEM cells/ml, infected with 100 CCID50 of HIV per ml and containing appropriate dilutions of the test compounds. After 4 to 5 days of incubation at 37° C. in a CO2-controlled humidified atmosphere, CEM, C8166 or Molt4/C8 giant (syncytium) cell formation was examined microscopically.

HIV-2 (EHO) = conditions: read-out: EC50 CEM/0 HIV-2 (EHO); CEM/0 cells
Description: as §2

[5] = test system: mutant HIV-1 strain Tyr-181-Cys; test: Anti-HIV-1 activity against mutant HIV-1 strain Tyr-181-Cys in CEM cultures; assay type: cell-based
[6] = read-out: EC50 HSV-1 (KOS), HEL cell cultures
[7] = read-out: EC50 HSV-2 (G), HEL cell cultures
[8] = VZV strain OKA, read-out: EC50 VZV (OKA)
[9] = VZV strain YS, read-out: EC50 VZV (YS)
[10] = CEM cultures, wild type in mutant panel, read-out: EC50 HIV-1 IIIB
[11] = CEM/0 cells, read-out: EC50 CEM/0 HIV-1 (IIIB)
[12] = read-out: EC50 HIV-1 (concentration required to inhibit HIV-induced giant cell formation by 50%), HIV-1, CEM cell cultures

Compound | CC50 (HEL cells [1]; HEL cell proliferation) | EC50 (HSV-1 (KOS); [6]) | EC50 (HSV-2 (G); [7]) | CC50 (HEL cells [1]; HEL cells, anti-VZV table) | MTC (HEL) (HEL cells [2]) | MTC (HEL) (HEL cells [2]; anti-VZV table) | EC50 (VZV (wild-type strains); [8]) | EC50 (VZV (wild-type strains); [9]) | EC50 (HIV-2(ROD)) | IC50 [3] | IC50 (human lymphocyte CEM) | IC50 (murine leukemia L1210) | EC50 (HIV-1 (IIIB); [12]) | further results
Ristosaminylaglycon of ristomycin [Compound 88] | > 50 µM | 120 µM | > 200 µM | – | – | – | – | – | – | – | – | – | – | –
CCCCc1ccc(CNCc2c(O)cc3c(c2O)-c2cc(ccc2O)C2NC(=O)C4NC(=O)C5NC(=O)C(Cc6ccc(c(Cl)c6)Oc6cc4cc(c6O)Oc4ccc(cc4Cl)C(O)C(NC2=O)C(=O)NC3C(=O)O)NC(=O)C(NC(=O)OC(C)(C)C)c2ccc(O)c(c2)Oc2cc(O)cc5c2)cc1 (stereo not shown) [Compound 146] | > 50 µM | 9.6 µM | 9.6 µM | > 50 µM | ≧5-50 μM | ≧5-50 μM | 2.5 µM | – | – | – | – | – | – | CC50 (HEL cells [1]; HEL cells, anti-CMV table): > 50 µM; MTC (HEL) (HEL cells [2]; anti-CMV table): ≧5-50 μM; EC50 (CMV): > 20 µM; activity against HSV-1 (HSV-1 (KOS)): activity; activity against HSV-2 (HSV-2 (G)): activity
CCCCOc1ccc(CNCCOc2c3cc4cc2Oc2ccc(cc2Cl)C(O)C2NC(=O)C(NC(=O)C4NC(=O)C4NC(=O)C(Cc5ccc(c(Cl)c5)O3)NC(=O)C(NCc3ccc(OCCCC)cc3)c3ccc(O)c(c3)Oc3cc(O)cc4c3)c3ccc(O)c(c3)-c3c(O)cc(O)cc3C(C(=O)O)NC2=O)cc1 (stereo not shown) [Compound 132] | 40 µM | 9.6 µM | 9.6 µM | 40 µM | ≧5-20 μM | ≧5-20 μM | 0.97 µM | – | – | – | – | – | – | activity against HSV-1 (HSV-1 (KOS)): activity; activity against HSV-2 (HSV-2 (G)): activity
CN(Cc1ccc(Cl)cc1)Cc1c(O)cc2c(c1O)-c1cc(ccc1O)C1NC(=O)C3NC(=O)C4NC(=O)C(Cc5ccc(c(Cl)c5)Oc5cc3cc(c5O)Oc3ccc(cc3Cl)C(O)C(NC1=O)C(=O)NC2C(=O)O)NC(=O)C(N)c1ccc(O)c(c1)Oc1cc(O)cc4c1 (stereo not shown) [Compound 115] | 50 µM | 80 µM | > 16 µM | 50 µM | ≧20-200 μM | ≧20-200 μM | > 5 µM | 8.9 µM | – | – | – | – | – | –
CC(C)CC(C(=O)NC1C(=O)NC(CC(N)=O)C(=O)NC2C(=O)NC3C(=O)NC(C(=O)NC(C(=O)O)c4cc(O)c(CN5CCN(Cc6ccc(-c7ccccc7)cc6)CC5)c(O)c4-c4cc3ccc4O)C(O)c3ccc(cc3)Oc3cc2cc(c3O)Oc2ccc(cc2Cl)C1O)N(C)C(=O)OC(C)(C)C (stereo not shown) [Compound 98] | > 50 µM | – | – | > 50 µM | ≧20-200 μM | ≧20-200 μM | 2.3 µM | 1.3 µM | – | – | – | – | – | activity against VZV (VZV (wild-type strains)): pronounced activity; EC50 (HSV-1 (KOS); read-out: EC50 HSV-1): 24 µM; EC50 (HSV-2 (G); read-out: EC50 HSV-2): 24 µM
CNC(CC(C)C)C(=O)NC1C(=O)NC(CC(N)=O)C(=O)NC2C(=O)NC3C(=O)NC(C(=O)NC(C(=O)O)c4cc(O)c(CN5CCN(Cc6ccc(-c7ccccc7)cc6)CC5)c(O)c4-c4cc3ccc4O)C(O)c3ccc(cc3)Oc3cc2cc(c3O)Oc2ccc(cc2Cl)C1O (stereo not shown) [Compound 6] | – | – | – | > 50 µM | – | ≧20-200 μM | 4.2 µM | – | 12 ± 3.5 µM | > 500 µM | > 500 µM | 250 ± 39 µM | 5.5 ± 0.7 µM | EC50 (HIV-1 (HE)): 40 µM; activity against VZV (VZV (wild-type strains)): pronounced activity; EC50 (HIV-1(HE)): 22 ± 2.9 µM; EC50 (HIV-1 (MN)): 20 µM; EC50 [4]: 11 ± 1.4 µM; EC50 (HIV-1 (IIIB); [10]): 5.5 ± 0.7 µM; EC50 (HIV-1 (IIIB); [11]): 5.5 ± 0.7 µM; EC50 (HIV-2 (RF)): 16 ± 5.7 µM; EC50 (HIV-2 (EHO)): 50 µM
CC1(C)SC2C(NC(=O)C3NC(=O)C4NC(=O)C(NC(=O)C5NC(=O)C6NC(=O)C(Cc7ccc(c(Cl)c7)Oc7cc5cc(c7O)Oc5ccc(cc5Cl)C4O)NC(=O)C(N)c4ccc(O)c(c4)Oc4cc(O)cc6c4)c4ccc(O)c(c4)-c4c(O)cc(O)cc43)C(=O)N2C1C(=O)O (stereo not shown) [Compound 145] | > 50 µM | 48 µM | 48 µM | > 50 µM | – | – | 3.9 µM | 2.8 µM | – | – | – | – | – | –
CCCCCCCCCC(=O)N1CCN(C(=O)C2NC(=O)C3NC(=O)C(NC(=O)C4NC(=O)C5NC(=O)C(Cc6ccc(c(Cl)c6)Oc6cc4cc(c6O)Oc4ccc(cc4Cl)C3O)NC(=O)C(N)c3ccc(O)c(c3)Oc3cc(O)cc5c3)c3ccc(O)c(c3)-c3c(O)cc(O)cc32)CC1 (stereo not shown) [Compound 40] | > 50 µM | 9.6 µM | 9.6 µM | > 50 µM | ≧5-20 μM | ≧5-20 μM | 0.29 µM | 0.21 µM | 4.5 ± 2.1 µM | 32.3 µM | 44 ± 0.42 µM | 38.7 ± 3.4 µM | 1.5 ± 0.7 µM | –
CCCCc1ccc(CNCC(=O)N2CCN(C(=O)C3NC(=O)C4NC(=O)C(NC(=O)C5NC(=O)C6NC(=O)C(Cc7ccc(c(Cl)c7)Oc7cc5cc(c7O)Oc5ccc(cc5Cl)C4O)NC(=O)C(N)c4ccc(O)c(c4)Oc4cc(O)cc6c4)c4ccc(O)c(c4)-c4c(O)cc(O)cc43)CC2)cc1 (stereo not shown) [Compound 46] | – | – | – | > 50 µM | – | 20 to 80 µM | 0.81 µM | – | 7 ± 4.2 µM | > 100 µM | > 100 µM | > 100 µM | 4 µM | EC50 (HIV-1 (HE)): 35 ± 7.1 µM; EC50 (HIV-1(HE)): 6.5 ± 4.3 µM; EC50 (HIV-1 (MN)): 9 ± 1.4 µM; EC50 [4]: 17 ± 4.2 µM; EC50 [5]: 8 µM; EC50 (HIV-1 (IIIB); [10]): 4 µM; EC50 (HIV-1 (IIIB); [11]): 4 µM; EC50 (HIV-2 (RF)): 10 µM; EC50 (HIV-2 (EHO)): 35 ± 7.1 µM
